Experimental findings from patent US20240239772A1, “PROTEASE INHIBITORS AND METHODS OF USE” (The Cleveland Clinic Foundation, priority 2021, published 2024) are described below.

For this assay, the target named is SARS-CoV-2 3CLpro (Severe acute respiratory syndrome coronavirus 2 (2019-nCoV) (SARS-CoV-2), UniProt P0DTD1). Kind of assay: biochemical. The settings on record: read-out: SARS-CoV-2 IC50. Type of assay: biochemical.

Take `Cc1cc(Cl)cc(CN(C(=O)Cn2nnc3ccccc32)c2ccc(-c3cccnc3)cc2)c1` [Compound 33, 2-(Benzotriazol-1-yl)-N-[(3-chloro-5-methyl-phenyl)methyl]-N-[4-(3-pyridyl)phenyl]acetamide]: the IC50 was 312 ± 73 nM.

`O=C(Cn1nnc2ccccc21)N(Cc1cncc(Cl)c1)c1ccc(-c2cccnc2)cc1` [Compound 34, 2-(Benzotriazol-1-yl)-N-[(5-chloro-3-pyridyl)methyl]-N-[4-(3-pyridyl)phenyl]acetamide]: the IC50 amounted to 540 ± 70 nM.

`O=C(Cn1nnc2ccccc21)N(Cc1cc(F)cc(F)c1)c1ccc(-c2c[nH]cn2)cc1` [Compound 78, 2-(benzotriazol-1-yl)-N-[(3,5-difluorophenyl)methyl]-N-[4-(1H-imidazol-4-yl)phenyl]acetamide]: the IC50 was 95 nM.

For `O=C(Cn1nnc2ccccc21)N(Cc1cccc(C(F)(F)F)c1)c1ccc(-c2c[nH]cn2)cc1` [Compound 76, 2-(benzotriazol-1-yl)-N-[4-(1H-imidazol-4-yl)phenyl]-N-[[3-(trifluoromethyl)phenyl]methyl]acetamide], the IC50 was 270 nM.

On to `O=C(Cn1nnc2ccccc21)N(Cc1ccc(F)cn1)c1ccc(-c2c[nH]cn2)cc1` [Compound 103, 2-(benzotriazol-1-yl)-N-[(5-fluoro-2-pyridyl)methyl]-N-[4-(1H-imidazol-4-yl)phenyl]acetamide], for which the IC50 is 9500 nM.

For `N#Cc1ccc(N(Cc2cc(F)cc(F)c2)C(=O)Cn2nnc3ccccc32)cc1` [Compound 102, 2-(benzotriazol-1-yl)-N-(4-cyanophenyl)-N-[(3,5-difluorophenyl)methyl]acetamide], the IC50 amounted to 4700 nM.

For the compound `Cc1ccc(CN(C(=O)Cn2nnc3ccccc32)c2ccc(-c3cccnc3)cc2)cc1Cl` [Compound 71, 2-(1H-benzo[d][1,2,3]triazol-1-yl)-N-(3-chloro-4-methylbenzyl)-N-(4-(pyridin-3-yl)phenyl)acetamide], the IC50 was greater than 50000 nM.

On to `Cc1nc(-c2ccc(N(Cc3cc(F)cc(F)c3)C(=O)Cn3nnc4ccccc43)cc2)c[nH]1` [Compound 104, 2-(benzotriazol-1-yl)-N-[(3,5-difluorophenyl)methyl]-N-[4-(2-methyl-1H-imidazol-4-yl)phenyl]acetamide], for which the IC50 was determined as 170 nM.

On to `O=C(Cn1nnc2ccccc21)N(Cc1cncc(Cl)c1)c1ccc(-c2c[nH]cn2)cc1` [Compound 85, 2-(benzotriazol-1-yl)-N-[(5-chloro-3-pyridyl)methyl]-N-[4-(1H-imidazol-4-yl)phenyl]acetamide], for which the IC50 was found to be 89 nM.

For `O=C(Cn1nnc2ccccc21)N(Cc1cc(F)cc(Cl)c1)c1ccc(-c2c[nH]cn2)cc1` [Compound 72, 2-(benzotriazol-1-yl)-N-[(3-chloro-5-fluoro-phenyl)methyl]-N-[4-(1H-imidazol-4-yl)phenyl]acetamide], the IC50 amounted to 52 nM.

In the case of `COc1cc(Cl)cc(CN(C(=O)Cn2nnc3ccccc32)c2ccc(-c3c[nH]cn3)cc2)c1` [Compound 87, 2-(benzotriazol-1-yl)-N-[(3-chloro-5-methoxy-phenyl)methyl]-N-[4-(1H-imidazol-4-yl)phenyl]acetamide], the IC50 stood at 57 nM.

Consider `O=C(Cn1nnc2ccccc21)N(Cc1cc(F)cc(F)c1)c1ccc(-c2ncc[nH]2)cc1` [Compound 100, 2-(benzotriazol-1-yl)-N-[(3,5-difluorophenyl)methyl]-N-[4-(1H-imidazol-2-yl)phenyl]acetamide], for which the IC50 worked out at 340 nM.

Turning to `O=C(Cn1nnc2ccccc21)N(Cc1cc(F)ccc1F)c1ccc(-c2c[nH]cn2)cc1` [Compound 80, 2-(benzotriazol-1-yl)-N-[(2,5-difluorophenyl)methyl]-N-[4-(1H-imidazol-4-yl)phenyl]acetamide], the IC50 is 220 nM.

Regarding `NCc1ccc(N(Cc2cc(F)cc(F)c2)C(=O)Cn2nnc3ccccc32)cc1` [Compound 124, N-[4-(aminomethyl)phenyl]-2-(benzotriazol-1-yl)-N-[(3,5-difluorophenyl)methyl]acetamide], the IC50 amounted to 59 nM.

Consider `O=C(Cn1ccnn1)N(Cc1cccc(Cl)c1)c1ccc(-c2cn[nH]c2)cc1` [Compound 113, N-[(3-chlorophenyl)methyl]-N-[4-(1H-pyrazol-4-yl)phenyl]-2-(triazol-1-yl)acetamide], for which the IC50 came to 8200 nM.

For `O=C(Cn1nnc2ccccc21)N(Cc1cncc(F)c1)c1ccc(-c2c[nH]cn2)cc1` [Compound 97, 2-(benzotriazol-1-yl)-N-[(5-fluoro-3-pyridyl)methyl]-N-[4-(1H-imidazol-4-yl)phenyl]acetamide], the IC50 was determined as 130 nM.

Consider `O=C(Cn1nnc2ccccc21)N(Cc1cccc(F)c1F)c1ccc(-c2c[nH]cn2)cc1` [Compound 81, 2-(benzotriazol-1-yl)-N-[(2,3-difluorophenyl)methyl]-N-[4-(1H-imidazol-4-yl)phenyl]acetamide], for which the IC50 worked out at 400 nM.

Take `O=C1CNCCN1c1ccc(N(Cc2cc(F)cc(F)c2)C(=O)Cn2nnc3ccccc32)cc1` [Compound 101, 2-(benzotriazol-1-yl)-N-[(3,5-difluorophenyl)methyl]-N-[4-(2-oxopiperazin-1-yl)phenyl]acetamide]: the IC50 came out at 3400 nM.

`O=C(Cn1ccnn1)N(Cc1cc(F)cc(Cl)c1)c1ccc(-c2c[nH]cn2)cc1` [Compound 112, N-[(3-chloro-5-fluoro-phenyl)methyl]-N-[4-(1H-imidazol-4-yl)phenyl]-2-(triazol-1-yl)acetamide]: the IC50 was 410 nM.

With `Cc1[nH]cnc1-c1ccc(N(Cc2cc(F)cc(Cl)c2)C(=O)Cn2nnc3ccccc32)cc1` [Compound 74, 2-(benzotriazol-1-yl)-N-[(3-chloro-5-fluoro-phenyl)methyl]-N-[4-(5-methyl-1H-imidazol-4-yl)phenyl]acetamide], the IC50 turned out to be 350 nM.

For the compound `O=C(Cn1nnc2ccccc21)N(Cc1ccsc1)c1ccc(-c2ccc[nH]c2=O)cc1` [Compound 17, 2-(1H-Benzo[d][1,2,3]triazol-1-yl)-N-(4-(2-oxo-1,2-dihydropyridin-3-yl)phenyl)-N-(thiophen-3-ylmethyl)acetamide], the IC50 stood at 920 ± 210 nM.

`O=C(Cn1nnc2ccccc21)N(Cc1cc(Cl)cc(Cl)c1)c1ccc(-c2cccnc2)cc1` [Compound 32, 2-(Benzotriazol-1-yl)-N-[(3,5-dichlorophenyl)methyl]-N-[4-(3-pyridyl)phenyl]acetamide]: the IC50 worked out at 176 ± 25 nM.

On to `O=C(Cn1nnc2ccccc21)N(Cc1cncc(F)c1)c1ccc(C2CNC2)cc1` [Compound 119, N-[4-(azetidin-3-yl)phenyl]-2-(benzotriazol-1-yl)-N-[(5-fluoro-3-pyridyl)methyl]acetamide], for which the IC50 was 600 nM.

On to `O=C(Cn1nnc2ccccc21)N(Cc1cncc(F)c1)c1ccc(C2=CCNC2)cc1` [Compound 122, 2-(benzotriazol-1-yl)-N-[4-(2,5-dihydro-1H-pyrrol-3-yl)phenyl]-N-[(5-fluoro-3-pyridyl)methyl]acetamide], for which the IC50 turned out to be 1500 nM.

As for `O=C(Cn1nnc2ccccc21)N(Cc1cc(F)cc(F)c1)c1ccc(-c2nnc[nH]2)cc1` [Compound 106, 2-(benzotriazol-1-yl)-N-[(3,5-difluorophenyl)methyl]-N-[4-(4H-1,2,4-triazol-3-yl)phenyl]acetamide], the IC50 is 940 nM.

Turning to `O=C(Cn1nnc2ccccc21)N(Cc1cc(F)cc(F)c1)c1ccc(CCO)cc1` [Compound 99, 2-(benzotriazol-1-yl)-N-[(3,5-difluorophenyl)methyl]-N-[4-(2-hydroxyethyl)phenyl]acetamide], the IC50 turned out to be 460 nM.

On to `O=C(Cn1nnc2ccccc21)N(Cc1cc(Cl)ccc1F)c1ccc(-c2c[nH]cn2)cc1` [Compound 83, 2-(benzotriazol-1-yl)-N-[(5-chloro-2-fluoro-phenyl)methyl]-N-[4-(1H-imidazol-4-yl)phenyl]acetamide], for which the IC50 amounted to 76 nM.

In the case of `COc1cc(F)cc(CN(C(=O)Cn2nnc3ccccc32)c2ccc(-c3c[nH]cn3)cc2)c1` [Compound 111, 2-(benzotriazol-1-yl)-N-[(3-fluoro-5-methoxy-phenyl)methyl]-N-[4-(1H-imidazol-4-yl)phenyl]acetamide], the IC50 is 69 nM.

With `CC(C)CCN(C(=O)Cn1nnc2ccccc21)c1ccc(-c2cccnc2)cc1` [Compound 22, 2-(1H-Benzo[d][1,2,3]triazol-1-yl)-N-isopentyl-N-(4-(pyridin-3-yl)phenyl)acetamide], the IC50 amounted to 4620 ± 130 nM.

In the case of `COC(=O)Cc1ccc(N(Cc2cc(F)cc(F)c2)C(=O)Cn2nnc3ccccc32)cc1` [Compound 92, methyl 2-[4-[[2-(benzotriazol-1-yl)acetyl]-[(3,5-difluorophenyl)methyl]amino]phenyl]acetate], the IC50 is 1800 nM.

As for `O=C(Cn1nnc2ccccc21)N(Cc1cc(F)cc(F)c1)c1ccc(C2CCNC2)cc1` (centres unmarked) [Compound 108, 2-(benzotriazol-1-yl)-N-[(3,5-difluorophenyl)methyl]-N-(4-pyrrolidin-3-ylphenyl)acetamide], the IC50 worked out at 210 nM.

`CC(C)(C)CN(C(=O)Cn1nnc2ccccc21)c1ccc(-c2c[nH]cn2)cc1` [Compound 114, 2-(benzotriazol-1-yl)-N-(2,2-dimethylpropyl)-N-[4-(1H-imidazol-4-yl)phenyl]acetamide]: the IC50 was determined as 1600 nM.

Regarding `COc1ccc(CN(C(=O)Cn2nnc3ccccc32)c2ccc(-c3c[nH]cn3)cc2)cc1F` [Compound 117, 2-(benzotriazol-1-yl)-N-[(3-fluoro-4-methoxy-phenyl)methyl]-N-[4-(1H-imidazol-4-yl)phenyl]acetamide], the IC50 stood at 970 nM.

For the compound `N#Cc1cccc(CN(C(=O)Cn2nnc3ccccc32)c2ccc(-c3c[nH]cn3)cc2)c1` [Compound 77, 2-(benzotriazol-1-yl)-N-[(3-cyanophenyl)methyl]-N-[4-(1H-imidazol-4-yl)phenyl]acetamide], the IC50 is 640 nM.

`O=C(Cn1nnc2ccccc21)N(Cc1cc(F)cc(Cl)c1)c1ccc(-c2c[nH]cn2)cn1` [Compound 75, 2-(benzotriazol-1-yl)-N-[(3-chloro-5-fluoro-phenyl)methyl]-N-[5-(1H-imidazol-4-yl)-2-pyridyl]acetamide]: the IC50 came out at 62 nM.

Usually IC50 stands for the concentration that gives 50% inhibition.
